Experimental data from ChEMBL document CHEMBL5338709, “Design, synthesis, and structure-activity relationship of TAK-418 and its derivatives as a novel series of LSD1 inhibitors with lowered risk of hematological side effects” (Eur J Med Chem, 2022).
pIC50: −log10 of the molar value.

How the values were obtained:
[1] = AUC (0 to 24 hrs) in ICR mouse at 10 mg/kg, po; assay type: ADME, organism-based; parameters: dose 10 mg/kg, route po; details: in vivo
Mus musculus [2] = test: Improvement of recognition memory in NR1 hypofunction mouse assessed as novelty discrimination index at 0.3 mg/kg, po administered once daily for 2 weeks by novel object recognition test (reference value: 51.4 +/- 3.1%); assay type: functional
Mus musculus [3] = test: Improvement of recognition memory in NR1 hypofunction mouse assessed as novelty discrimination index at 1 mg/kg, po administered once daily for 2 weeks by novel object recognition test (reference value: 51.4 +/- 3.1%); assay type: functional
[4] = Toxicity in ICR mouse assessed as reduction in platelet count upto 100 mg/kg/day, po administered for 4 days; assay type: organism-based; details: in vivo, 96 h, time 4 day
[5] = Toxicity in ICR mouse assessed as reduction in white blood cell count upto 100 mg/kg/day, po administered for 4 days; assay type: organism-based; details: in vivo, 96 h, time 4 day
[6] = Toxicity in ICR mouse assessed as reduction in red blood cell count upto 100 mg/kg/day, po administered for 4 days; assay type: organism-based; details: in vivo, 96 h, time 4 day
[7] = Metabolic stability in mouse liver microsomes assessed as clearance at 1 uM incubated for 15 to 30 mins in presence of NADPH generating system by LC-MS/MS analysis; assay type: ADME, Microsome; details: time 15-30 min, read-out: CLH
GFI1 mRNA = test: Hematological toxicity in human TF-1a cells assessed as fold increase in GFI1 mRNA expression at 10 uM incubated for 1 day by RT-qPCR analysis relative to control; assay type: cell-based; details: read-out: FC
LSD1/CoREST complex = LSD1/CoREST complex (Homo sapiens, UniProt O60341); test: Inhibition of recombinant human LSD1 (172 to 852 residues)/His-tagged human CoREST (286 to 482 residues) expressed in Escherichia coli BL21 (DE3) cells using ART(mK)QTARKSTGGKAPRKQLAGGK-Biotin as substrate assessed as increase in H3K4 methylation incubated for 40 mins
[8] = target: Lysine-specific histone demethylase 1A (Homo sapiens, UniProt O60341); test: Inhibition of LSD1 (unknown origin)

Compound	microsomal CLint at 1 µM [7]	fold induction at 24 h, 10 µM (GFI1 mRNA)	pIC50 (LSD1/CoREST complex)	also measured
O=C(NC1CCOCC1)c1csc([C@@H]2C[C@H]2NCC2CC2)c1	–	–	–	AUC(0-t) [1]: 1050 ng·h/mL; Activity (Mus musculus [2]): 62.7%; Activity (Mus musculus [3]): 66%
Cc1nnc(NC(=O)c2cccc([C@@H]3C[C@H]3NCC3CC3)c2)s1	–	–	–	Activity [4]: Non-Toxic; Activity [5]: Non-Toxic; Activity [6]: Non-Toxic
Cc1nnc(NC(=O)c2cc([C@@H]3C[C@H]3NCC3CC3)cs2)s1 (racemic)	15 µL/min/mg	–	–	–
O=C(NC1CCOCC1)c1csc([C@@H]2C[C@H]2NCC2CC2)c1 (racemic)	13 µL/min/mg	–	–	–
Cc1nnc(NC(=O)c2csc([C@@H]3C[C@H]3NCC3CC3)c2)s1 (racemic)	26 µL/min/mg	–	–	–
O=C(Nc1cccc([C@@H]2C[C@H]2NCC2CC2)c1)c1ccccc1 (racemic)	–	3.51	5.74	–
O=C(Nc1ccccc1)c1cccc([C@@H]2C[C@H]2NCC2CC2)c1 (racemic)	101 µL/min/mg	1.97	7.09	–
CN(C(=O)c1cccc([C@@H]2C[C@H]2NCC2CC2)c1)c1ccccc1 (racemic)	–	9.6	6.07	–
O=C(NC1CCC(F)(F)CC1)c1cccc([C@@H]2C[C@H]2NCC2CC2)c1 (racemic)	26 µL/min/mg	–	–	–
Cc1nnc(NC(=O)c2cccc([C@@H]3C[C@H]3NCC3CC3)c2)s1 (racemic)	10 µL/min/mg	–	–	–
O=C(Nc1ccccc1)c1ccccc1[C@@H]1C[C@H]1NCC1CC1 (racemic)	–	–	< 5.00	–
O=C(Nc1cccnc1)c1cccc([C@@H]2C[C@H]2NCC2CC2)c1 (racemic)	47 µL/min/mg	1.53	6.80	–
O=C(Nc1ccccc1)c1ccc([C@@H]2C[C@H]2NCC2CC2)cc1 (racemic)	–	10.6	–	pIC50 [8]: 9.00
O=C(NC1CCOCC1)c1cccc([C@@H]2C[C@H]2NCC2CC2)c1 (racemic)	11 µL/min/mg	–	–	–
O=C(Nc1ccc([C@@H]2C[C@H]2NCC2CC2)cc1)c1ccccc1 (racemic)	–	10.7	–	pIC50 [8]: 8.85
